In publication PMC9688530, “Development of Ic-ELISA and Colloidal Gold Lateral Flow Immunoassay for the Determination of Cypermethrin in Agricultural Samples” (Biosensors, 2022):
Converted amounts (≈) assume the structure as drawn.

Tested on: anti-CYP mAb 1E7D5
Test: homologous ic-ELISA, hapten 1 coating antigen, mAb 1E7D5
Assay type: binding, mouse
Conditions: hapten 1 as coating antigen
Experimental: The ic-ELISA procedure was executed according to previous studies. Each well of the ELISA plate was coated with 100 μL of coating antigen diluted with carbonate buffer (0.05 mol/L, pH 9.6) at 4 °C overnight. After washing three times with phosphate-buffered saline (PBS, 0.01 mol/L, pH 7.4) containing 1‰ Tween-20, the wells were blocked with 200 μL of 5% skim milk powder in PBS at 37 °C for two hours. After the same washing procedure, 50 μL of CYP standard solution and 50 μL of mAb were pipetted into each well and incubated at 37 °C for one hour. After washing five times, 100 μL per well of 0.5‰ horseradish peroxidase-labeled goat anti-mouse IgG antibody in PBS was added and incubated at 37 °C for one hour. After the wells were washed five times, 100 μL per well of fresh substrate solution (0.1 mg/mL 3,3′,5,5′-tetramethylbenzidine and 0.024‰ H2O2 in 0.1 M citrate acid buffer) was added to react at 37 °C for 15 min. Then, 50 μL per well of 0.2 mol/L H2SO4 was used to stop the reaction, and the absorbances were read at 450 nm with a microplate reader.
After five immunizations, the anti-serum of five mice was collected to determine the serum titer. All mouse serum had high titers ranging from 1:64,000 to 1:256,000. […] Then, the sensitivity of these monoclonal antibodies was evaluated by homologous ic-ELISA. […] The subtype of mAb 2G7H9 was determined as IgG2b by a kit. […]

`CC1(C)C(C=C(Cl)Cl)C1C(=O)OC(C#N)c1cccc(Oc2ccccc2)c1` (stereo not shown) [CYP, Cypermethrin] showed an IC50 of 0.314 µg/mL (≈ 0.754 µM).
